Results published in US20240247015A1, “PHOSPHORUS DERIVATIVES AS NOVEL SOS1 INHIBITORS” (BAYER AKTIENGESELLSCHAFT, priority 2021, published 2024).

Target: interaction of human SOS1 (SOS1) with human K-RasG12C (Homo sapiens (Human), UniProt Q07889)
Experiment: Biochemical assay: hK-RasG12C interaction assay with hSOS1 (HTRF)
Type: binding
Settings: GST-hK-RasG12C with His-hSOS1, 60 min incubation at 20° C., mean, read-out: K-RasG12C - SOS interaction assay IC50 (mean)
Procedure, shortened: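 Compounds, duplicates at 11 concentrations from 0.073 nM to 20 µM, were preincubated 2 min with 10 nM GST-hK-RasG12C, then 20 nM His-hSOS1 was added, all at 20 °C. After 60 min, 665/620 nm HTRF ratio normalized to DMSO and SOS1-free controls; IC50 by 4-parameter fit.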

Sequence of interaction of human SOS1 (SOS1) with human K-RasG12C (Q07889 564-1049 limits assumed): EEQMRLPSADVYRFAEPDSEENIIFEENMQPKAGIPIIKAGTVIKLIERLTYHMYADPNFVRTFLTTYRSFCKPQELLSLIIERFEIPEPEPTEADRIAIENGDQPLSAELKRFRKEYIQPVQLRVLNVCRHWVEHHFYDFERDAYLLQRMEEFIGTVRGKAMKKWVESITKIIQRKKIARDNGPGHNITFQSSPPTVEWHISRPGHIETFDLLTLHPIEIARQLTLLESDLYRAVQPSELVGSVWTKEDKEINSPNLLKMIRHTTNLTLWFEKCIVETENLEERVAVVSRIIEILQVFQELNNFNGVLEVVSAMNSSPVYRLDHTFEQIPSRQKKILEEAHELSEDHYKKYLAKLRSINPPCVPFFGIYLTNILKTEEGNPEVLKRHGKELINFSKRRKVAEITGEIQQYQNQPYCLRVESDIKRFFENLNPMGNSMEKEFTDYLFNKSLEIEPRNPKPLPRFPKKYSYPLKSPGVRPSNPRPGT

IC50 [nM]	Compound
4.51	CC(=O)N1CCP(=O)(c2cnc3nc(C)nc(N[C@H](C)c4cccc(C(F)(F)F)c4C)c3c2)CC1 [Example 147, 1-acetyl-4-[2-methyl-4-({(1R)-1-[2-methyl-3-(trifluoromethyl)phenyl]ethyl}amino)pyrido[2,3-d]pyrimidin-6-yl]-1,4lambda^5-azaphosphinan-4-one]
18	CO[C@@H](C)C(=O)N1CCP(=O)(c2cc3c(N[C@H](C)c4cccc(C(F)F)c4F)nc(C)nc3cn2)CC1 [Example 149, 4-[4-{{(1R)-1-[3-(difluoromethyl)-2-fluorophenyl]ethyl}amino)-2-methylpyrido[3,4-d]pyrimidin-6-yl]-1-[(2S)-2-methoxypropanoyl]-1,4lambda^5-azaphosphinan-4-one]
4.76	Cc1nc(N[C@H](C)c2cccc(C(F)F)c2F)c2cc(P3(=O)CCN(C(=O)[C@@H](C)O)CC3)ncc2n1 [Example 150, 4-[4-{{(1R)-1-[3-(difluoromethyl)-2-fluorophenyl]ethyl}amino)-2-methylpyrido[3,4-d]pyrimidin-6-yl]-1-[(2R)-2-hydroxypropanoyl]-1,4lambda^5-azaphosphinan-4-one]
12.2	Cc1nc(N[C@H](C)c2cccc(C(F)F)c2F)c2cc(P3(=O)CCN(C(=O)C4(F)CC4)CC3)ncc2n1 [Example 151, 4-[4-{{(1R)-1-[3-(difluoromethyl)-2-fluorophenyl]ethyl}amino)-2-methylpyrido[3,4-d]pyrimidin-6-yl]-1-(1-fluorocyclopropane-1-carbonyl)-1,4lambda^5-azaphosphinan-4-one]
12.7	Cc1nc(N[C@H](C)c2cccc(C(F)F)c2F)c2cc(P3(=O)CCN(C(=O)C4(C#N)CC4)CC3)ncc2n1 [Example 152, 1-{4-[4-{{(1R)-1-[3-(difluoromethyl)-2-fluorophenyl]ethyl}amino)-2-methylpyrido[3,4-d]pyrimidin-6-yl]-4-oxo-1,4lambda5-azaphosphinane-1-carbonyl}cyclopropane-1-carbonitrile]
7.4	Cc1nc(N[C@H](C)c2cccc(C(F)F)c2F)c2cc(P3(=O)CCN(C(=O)C(C)C)CC3)ncc2n1 [Example 153, 4-[4-({(1R)-1-[3-(difluoromethyl)-2-fluorophenyl]ethyl}amino)-2-methylpyrido[3,4-d]pyrimidin-6-yl]-1-(2-methylpropanoyl)-1,4lambda^5-azaphosphinan-4-one]
6.15	COCC(=O)N1CCP(=O)(c2cc3c(N[C@H](C)c4cccc(C(F)F)c4F)nc(C)nc3cn2)CC1 [Example 154, 4-[4-{{(1R)-1-[3-(difluoromethyl)-2-fluorophenyl]ethyl}amino)-2-methylpyrido[3,4-d]pyrimidin-6-yl]-1-(methoxyacetyl)-1,4lambda^5-azaphosphinan-4-one]
11.1	CO[C@H](C)C(=O)N1CCP(=O)(c2cc3c(N[C@H](C)c4cccc(C(F)F)c4F)nc(C)nc3cn2)CC1 [Example 155, 4-[4-{{(1R)-1-[3-(difluoromethyl)-2-fluorophenyl]ethyl}amino)-2-methylpyrido[3,4-d]pyrimidin-6-yl]-1-[(2R)-2-methoxypropanoyl]-1,4lambda^5-azaphosphinan-4-one]
11.4	Cc1nc(N[C@H](C)c2cccc(C(F)F)c2F)c2cc(P3(=O)CCN(C(=O)C4(O)CC4)CC3)ncc2n1 [Example 156, 4-[4-{{(1R)-1-[3-(difluoromethyl)-2-fluorophenyl]ethyl}amino)-2-methylpyrido[3,4-d]pyrimidin-6-yl]-1-(1-hydroxycyclopropane-1-carbonyl)-1,4lambda^5-azaphosphinan-4-one]
5.04	Cc1nc(N[C@H](C)c2cccc(C(F)F)c2F)c2cc(P3(=O)CCN(C(=O)[C@H](C)O)CC3)ncc2n1 [Example 157, 4-[4-{{(1R)-1-[3-(difluoromethyl)-2-fluorophenyl]ethyl}amino)-2-methylpyrido[3,4-d]pyrimidin-6-yl]-1-[(2S)-2-hydroxypropanoyl]-1,4lambda^5-azaphosphinan-4-one]
7.89	Cc1nc(N[C@H](C)c2cccc(C(F)F)c2F)c2cc(P3(=O)CCN(C(=O)C4COC4)CC3)ncc2n1 [Example 158, 4-[4-{{(1R)-1-[3-(difluoromethyl)-2-fluorophenyl]ethyl}amino)-2-methylpyrido[3,4-d]pyrimidin-6-yl]-1-(oxetane-3-carbonyl)-1,4lambda^5-azaphosphinan-4-one]
12.7	Cc1nc(N[C@H](C)c2cccc(C(F)F)c2F)c2cc(P3(=O)CCN(C(=O)C4(C(F)F)CC4)CC3)ncc2n1 [Example 159, 1-[1-(difluoromethyl)cyclopropane-1-carbonyl]-4-[4-{{(1R)-1-[3-(difluoromethyl)-2-fluorophenyl]ethyl}amino)-2-methylpyrido[3,4-d]pyrimidin-6-yl]-1,4lambda^5-azaphosphinan-4-one]
7.87	Cc1nc(N[C@H](C)c2cccc(C(F)F)c2F)c2cc(P3(=O)CCN(C(=O)C4CC(F)(F)C4)CC3)ncc2n1 [Example 160, 1-(3,3-difluorocyclobutane-1-carbonyl)-4-[4-({(1R)-1-[3-(difluoromethyl)-2-fluorophenyl]ethyl}amino)-2-methylpyrido[3,4-d]pyrimidin-6-yl]-1,4lambda^5-azaphosphinan-4-one]
13.4	Cc1nc(N[C@H](C)c2cccc(C(F)F)c2F)c2cc(P3(=O)CCN(C(=O)c4cnn(C)c4)CC3)ncc2n1 [Example 161, 4-[4-{{(1R)-1-[3-(difluoromethyl)-2-fluorophenyl]ethyl}amino)-2-methylpyrido[3,4-d]pyrimidin-6-yl]-1-(1-methyl-1H-pyrazole-4-carbonyl)-1,4lambda^5-azaphosphinan-4-one]
272	Cc1nc(N[C@H](C)c2cccc(C(F)(F)F)c2C)c2cc(P3(=O)CCN(C(=O)CC#N)CC3)ncc2n1 [Example 162, 3-{4-[2-methyl-4-({(1R)-1-[2-methyl-3-(trifluoromethyl)phenyl]ethyl}amino)pyrido[3,4-d]pyrimidin-6-yl]-4-oxo-1,4lambda^5-azaphosphinan-1-yl}-3-oxopropanenitrile]
4.77	Cc1nc(N[C@H](C)c2cccc(C(F)F)c2F)c2cc(P3(=O)CCN(C(=O)C4CC4)CC3)ncc2n1 [Example 163, 1-(cyclopropanecarbonyl)-4-[4-({(1R)-1-[3-(difluoromethyl)-2-fluorophenyl]ethyl}amino)-2-methylpyrido[3,4-d]pyrimidin-6-yl]-1,4lambda^5-azaphosphinan-4-one]
7.01	Cc1nc(N[C@H](C)c2cccc(C(F)(F)F)c2C)c2cc(P3(=O)CCN(C(=O)C4COC4)CC3)ncc2n1 [Example 164, 4-[2-methyl-4-{{(1R)-1-[2-methyl-3-(trifluoromethyl)phenyl]ethyl}amino)pyrido[3,4-d]pyrimidin-6-yl]-1-(oxetane-3-carbonyl)-1,4lambda^5-azaphosphinan-4-one]
4.37	Cc1nc(N[C@H](C)c2cccc(C(F)(F)F)c2C)c2cc(P3(=O)CCN(C(=O)[C@H](C)O)CC3)ncc2n1 [Example 165, 1-[(2S)-2-hydroxypropanoyl]-4-[2-methyl-4-{{(1R)-1-[2-methyl-3-(trifluoromethyl)phenyl]ethyl}amino)pyrido[3,4-d]pyrimidin-6-yl]-1,4lambda^5-azaphosphinan-4-one]
4.83	Cc1nc(N[C@H](C)c2cccc(C(F)(F)F)c2C)c2cc(P3(=O)CCN(C(=O)[C@@H](C)O)CC3)ncc2n1 [Example 166, 1-[(2R)-2-hydroxypropanoyl]-4-[2-methyl-4-{{(1R)-1-[2-methyl-3-(trifluoromethyl)phenyl]ethyl}amino)pyrido[3,4-d]pyrimidin-6-yl]-1,4lambda^5-azaphosphinan-4-one]
12.7	Cc1nc(N[C@H](C)c2cccc(C(F)(F)F)c2C)c2cc(P3(=O)CCN(C(=O)C4(C#N)CC4)CC3)ncc2n1 [Example 167, 1-{4-[2-methyl-4-{{(1R)-1-[2-methyl-3-(trifluoromethyl)phenyl]ethyl}amino)pyrido[3,4-d]pyrimidin-6-yl]-4-oxo-1,4lambda^5-azaphosphinane-1-carbonyl}cyclopropane-1-carbonitrile]
12	Cc1nc(N[C@H](C)c2cccc(C(F)(F)F)c2C)c2cc(P3(=O)CCN(C(=O)C4(F)CC4)CC3)ncc2n1 [Example 168, 1-(1-fluorocyclopropane-1-carbonyl)-4-[2-methyl-4-({(1R)-1-[2-methyl-3-(trifluoromethyl)phenyl]ethyl}amino)pyrido[3,4-d]pyrimidin-6-yl]-1,4lambda^5-azaphosphinan-4-one]
9.55	Cc1nc(N[C@H](C)c2cccc(C(F)(F)F)c2C)c2cc(P3(=O)CCN(C(=O)C4(C(F)F)CC4)CC3)ncc2n1 [Example 169, 1-[1-(difluoromethyl)cyclopropane-1-carbonyl]-4-[2-methyl-4-({(1R)-1-[2-methyl-3-(trifluoromethyl)phenyl]ethyl}amino)pyrido[3,4-d]pyrimidin-6-yl]-1,4lambda^5-azaphosphinan-4-one]
11.3	Cc1nc(N[C@H](C)c2cccc(C(F)(F)F)c2C)c2cc(P3(=O)CCN(C(=O)C4CC(F)(F)C4)CC3)ncc2n1 [Example 170, 1-(3,3-difluorocyclobutane-1-carbonyl)-4-[2-methyl-4-({(1R)-1-[2-methyl-3-(trifluoromethyl)phenyl]ethyl}amino)pyrido[3,4-d]pyrimidin-6-yl]-1,4lambda^5-azaphosphinan-4-one]
6.76	Cc1nc(N[C@H](C)c2cccc(C(F)(F)F)c2C)c2cc(P3(=O)CCN(C(=O)C(C)C)CC3)ncc2n1 [Example 171, 4-[2-methyl-4-{{(1R)-1-[2-methyl-3-(trifluoromethyl)phenyl]ethyl}amino)pyrido[3,4-d]pyrimidin-6-yl]-1-(2-methylpropanoyl)-1,4lambda^5-azaphosphinan-4-one]
